# Measured values: patent publication US8569055B2, “Identification and characterization of cancer stem cells and methods of use” (City of Hope, priority 2006, dated 2013)
# B1: Bikunin: a physiological inhibitor of uPA (protein, UniProt P02760 206-352, looked up)
# Inter-alpha-trypsin inhibitor …: AVLPQEEEGSGGGQLVTEVTKKEDSCQLGYSAGPCMGMTSRYFYNGTSMACETFQYGGCMGNGNNFVTEKECLQTCRTVAACNLPIVRGPCRAFIQLWAFDAVKGKCVLFPYGGCQGNGNKFYSEKECREYCGVPGDGDEELLRFSN
# modifications: Inter-alpha-trypsin inhibitor light chain
# Tests used:
# Format in all cases: cell-based, human
# [1] = system: uPAR-positive sorted NCI-H1417 cells; assay: Cytotoxicity assay (Guava ViaCount), 5-FU, sorted uPAR-positive NCI-H1417; details: uPAR-positive sorted NCI-H1417, 72 hours
# Description: (§1) FIG. 2: Cytotoxic effect of 5-FU on non-sorted and sorted (uPAR-positive and uPAR-negative populations) derived from SCLC cell lines. (A) […] cells (H211, H69AR, H1417) were placed in wells of a 48-well plate in triplicates and incubated for 72 hr in the presence of varying concentrations of 5-FU. (B) SCLC cell lines were FACS sorted after staining with anti-uPAR antibodies and were plated at the same seeding density ([…]/well of 96-well plate) and treated with 5-FU at […] for 72 hr. Cell survival was evaluated after adding Guava ViaCount reagent and counting viable and dead cells. Only viable cells were included in data analysis, and 100% viability was defined as number of viable cells cultured in absence of 5-FU. […] The data points represent averages±SD of three independent experiments. […]
# (§2) Cells were counted, placed into 96-well plates (4×10^3 cells/well, in triplicate), and treated with 5-fluorouracil (5-FU) at a final concentration of 0, 3, 10, 100, or 200 μg/ml. After incubation for 72 hours, both viable and dead cells were counted using the Guava ViaCount assay. […] Fluorescence of the dyes allows quantitative assessment of both viable and non-viable cells in suspension. […]
# [2] = system: uPAR-negative NCI-H69AR cells; assay: Cytotoxicity assay (Guava ViaCount), 5-FU, sorted uPAR-negative NCI-H69AR; details: 72 hours
# Description: as §1, §2
# [3] = system: uPAR-positive sorted NCI-H211 cells; assay: Cytotoxicity assay (Guava ViaCount), 5-FU, sorted uPAR-positive NCI-H211; details: uPAR-positive sorted NCI-H211, 72 hours
# Description: as §1, §2
# [4] = system: non-sorted NCI-H211, NCI-H69AR, NCI-H1417 cells; assay: Cytotoxicity assay (Guava ViaCount), 5-FU, non-sorted SCLC cell lines; details: 5-FU up to 200 μg/ml, 72 hours
# Description: as §1, §2
# [5] = system: uPAR-positive NCI-H69AR cells; assay: Cytotoxicity assay (Guava ViaCount), 5-FU, sorted uPAR-positive NCI-H69AR; details: 72 hours
# Description: as §1, §2
# NSC F3 stem cell = assay: Inhibition of stem cell migration by uPAR inhibitors, in vitro migration assay; details: inhibitor applied to lower chamber of migration assay system
# Text: FIG. 10: Inhibition of NSC F3 stem cell migration by anti-uPAR antibodies and bikunin.
# The role of the uPA/uPAR system in stem cell migration was investigated using the immortalized neural stem cell line (NSC) HB1.F3.C1 and bone marrow-derived mesenchymal stem cells (MSC) (passages 5-6) for in vitro cell migration assays. Five cancer cell lines expressing high levels of uPAR (SK-N-AS, U251, PC-3, MDA-MB-231, and CRL-5904) and five cancer cell lines expressing low levels of uPAR (COLO-320, NB-1691, CRL-5824, CRL-5869, and MCF-7) as determined in Example 6 were utilized for this experiment.
# The effect of uPAR inhibitors on stem cell migration was examined in order to verify that increased stem cell migration to tumor cells expressing high levels of uPAR was dependent on uPAR. Bikunin, a physiological inhibitor of uPA, and various anti-uPAR antibodies were applied to the lower chamber of the migration assay system.
Molecule,cells killed [1],cells killed ([2]; 10 μg/ml 5-FU) [%],killing effect ([2]; 200 μg/ml 5-FU),cells killed [3],cells killed [4],cells killed ([5]; 10 μg/ml 5-FU) [%],killing effect ([5]; 200 μg/ml 5-FU),inhibition of stem cell migration (NSC F3 stem cell)
"O=c1[nH]cc(F)c(=O)[nH]1 [5-FU, 5-fluorouracil]",40-50%,85,approximately 100%,40-50%,40-80%,30,approximately 100%,–
B1,–,–,–,–,–,–,–,effectively inhibited stem cell migration
